pEC50: −log10 of the molar value.

T1 sequence (P20393 with tags, fused parts or gaps DEL324-422): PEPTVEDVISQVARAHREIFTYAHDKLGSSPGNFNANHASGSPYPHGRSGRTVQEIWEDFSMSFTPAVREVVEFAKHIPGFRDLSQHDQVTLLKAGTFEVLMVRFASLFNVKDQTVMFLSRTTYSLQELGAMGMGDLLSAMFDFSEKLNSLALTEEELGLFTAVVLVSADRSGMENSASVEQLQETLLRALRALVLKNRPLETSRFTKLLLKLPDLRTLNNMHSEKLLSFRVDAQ
T1 sequence (Q9Y618 2335-2356 partner limits assumed): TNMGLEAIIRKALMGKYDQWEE

The first experiment addresses T1, REV-ERBα LBD (human; residues 281-614 Δ324-422) (Homo sapiens, UniProt P20393, DEL324-422).
T1 construct: 6×Histag-REV-ERBα LBD (human; residues 281-614 Δ324-422); made in house; host or cells: Escherichia coli
Kind of experiment: TR-FRET corepressor interaction assay (REV-ERBα LBD, FITC-SMRT peptide). In kind it is biochemical. The settings on record: FITC-SMRT peptide, read-out: REVERBα agonism (EC50 class, FRET assay). The protocol:
TR-FRET corepressor interaction assay. The time-resolved fluorescence resonance energy transfer (TR-FRET) assay was performed in black low-volume 384-well plates (Greiner). […] Ligand stocks were prepared via serial dilution in DMSO, added to wells in triplicate, and plates were incubated at 4° C. for 2 h and read using a BioTek Synergy Neo multimode plate reader. The Tb donor was excited at 340 nm; its fluorescence emission was monitored at 495 nm, and the acceptor FITC emission was measured at 520 nm; and the TR-FRET ratio was calculated as the signal at 520 nm divided by the signal at 495 nm. Data were plotted using GraphPad Prism as TR-FRET ratio vs. ligand concentration and fit to sigmoidal dose response curve equation.
In general terms: Time-resolved FRET reads energy transfer from a long-lived donor to a nearby acceptor.
With `CC(C)(C)Cn1cc([C@@H](CO)NS(=O)(=O)C2CC2)c2ccc(-c3ccccc3C(F)(F)F)cc21` [Example 432, (S)—N-(2-hydroxy-1-(1-neopentyl-6-(2-(trifluoromethyl)phenyl)-1H-indol-3-yl)ethyl)cyclopropanesulfonamide], the pEC50 – broadly, the EC50 on a negative log10 scale, so that one unit is a factor of ten – is > 6.30.
Same read-out and setting: the result for `CC(C)(C)Cn1cc(CCNS(=O)(=O)C2CC2)c2ccc(-c3ccc(Cl)cc3C#N)cc21` [Example 482, N-(2-(6-(4-chloro-2-cyanophenyl)-1-neopentyl-1H-indol-3-yl)ethyl)cyclopropanesulfonamide] reads > 6.30.

The experiment is the same for the next values; noted with them: Table 2, read-out: REVERBα agonism (EC50 class, FRET assay).
Regarding `CC(C)(C)Cc1cn(CCNS(=O)(=O)C2CC2)c2ccc(C(F)(F)F)cc12` [Example 292, N-(2-(3-neopentyl-5-(trifluoromethyl)-1H-indol-1-yl)ethyl)cyclopropanesulfonamide], the pEC50 was 5.52 to 6.30.
The same measure, in the same setting: the result for `CC(C)c1ccc2c([C@H](NS(=O)(=O)C3CCC3)C(F)(F)F)cn(CC(C)(C)C)c2c1` [Example 415, (S)—N-(2,2,2-trifluoro-1-(6-isopropyl-1-neopentyl-1H-indol-3-yl)ethyl)cyclobutanesulfonamide] reads 5.52 to 6.30; that for `CC(C)Cn1cc(CCNS(=O)(=O)N(C)C)c2ccc(C3(O)CCC3)cc21` [Example 107, 1-(3-{2-[(dimethylsulfamoyl)amino]ethyl}-1-(2-methylpropyl)-1H-indol-6-yl)cyclobutan-1-ol], 5.52 to 6.30.
The same measure, in the same setting: the result for `CC(C)Cn1cc(C(C)N[S+]([O-])C(C)(C)C)c2ccc(-c3ccccc3C(F)(F)F)cc21` (stereo not drawn) [Compound 291] reads < 5.52; that for `CC(C)Cn1cc(C(C)(C)CNS(=O)(=O)N(C)C)c2ccc(-c3ccncc3)cc21` [Example 177, dimethyl({2-methyl-2-[1-(2-methylpropyl)-6-(pyridin-4-yl)-1H-indol-3-yl]propyl}sulfamoyl)amine], 5.52 to 6.30; that for `Cc1c(CCNS(=O)(=O)N(C)C)c2ccc(-c3ccncc3)cc2n1CC(C)C` [Example 41, dimethyl({2-[2-methyl-1-(2-methylpropyl)-6-(pyridin-4-yl)-1H-indol-3-yl]ethyl}sulfamoyl)amine], < 5.52.
On to `CCC(C)C(=O)n1cc(CNS(=O)(=O)N(C)C)c2ccc(-c3ccncc3)cc21` (stereo not drawn) [Example 188, 1-(3-{[(dimethylsulfamoyl)amino]methyl}-6-(pyridin-4-yl)-1H-indol-1-yl)-2-methylbutan-1-one], for which the pEC50 is > 6.30.
Same read-out and setting: the result for `CC(C)Cn1cc(CCS(=O)(=O)C(C)C)c2ccc(C3CCCCC3)cc21` [Compound 250] reads > 6.30.
Still for that read-out and setting: the result for `COC(=O)c1ccccc1-c1ccc2c(CCNS(=O)(=O)N(C)C)cn(CC(C)C)c2c1` [Example 73, N′-{2-[6-(2-methyl carbonatephenyl)-1-(2-methylpropyl)-1H-indol-3-yl]ethyl}-N,N-dimethyl sulfuric diamide] reads < 5.52; that for `CC(C)(C)Cc1cn(CCNS(=O)(=O)C2CC2)c2ccc(-c3ccc(F)c(F)c3)cc12` [Compound 226], 5.52 to 6.30.
As to `CC(C)(C)Cn1cc([C@H](NS(=O)(=O)C2CC2)C(F)(F)F)c2cc(F)c(-c3ccc(F)cc3C(F)(F)F)cc21` [Example 355, (S)—N-(2,2,2-trifluoro-1-(5-fluoro-6-(4-fluoro-2-(trifluoromethyl)phenyl)-1-neopentyl-1H-indol-3-yl)ethyl)cyclopropanesulfonamide], the negative-log EC50 (pEC50) is > 6.30.
Turning to `CC(C)(C)Cc1cn(CCNS(=O)(=O)C2CC2)c2ccc(-c3cccnc3)cc12` [Example 305, N-(2-(3-neopentyl-5-(pyridin-3-yl)-1H-indol-1-yl)ethyl)cyclopropanesulfonamide], the pEC50 is 5.52 to 6.30.
Same read-out and setting: the result for `CC(C)(C)Cc1cn(CCNS(=O)(=O)C2CC2)c2ccc(-c3cccc(F)c3Cl)cc12` [Example 228, N-(2-(5-(2-chloro-3-fluorophenyl)-3-neopentyl-1H-indol-1-yl)ethyl)cyclopropane sulfonamide] reads > 6.30.

For the origin of these results see patent US20230339886A1 (University of Florida Research Foundation, Incorporated, priority 2020, published 2023).
